Reference: ChEMBL document CHEMBL1157539, “Thousands of chemical starting points for antimalarial lead identification” (Nature, 2010)

Tested on: Plasmodium falciparum
Test: GSK_TCMDC: Inhibition of Plasmodium falciparum 3D7 in whole erythrocytes, using parasite LDH activity as an index of growth.
Format: functional, organism-based
Conditions: Plasmodium falciparum, 3D7

`O=C(Cn1c(CCc2cccc(F)c2F)cc(=O)c2ccccc21)N(Cc1ccc(-c2ccc(C(F)(F)F)cc2)cc1)C1CCN(CCN2CCOCC2)CC1` and `CC(=O)N(Cc1ccc(-c2ccc(CNCCc3ccccc3)cc2)cc1)C1CCN(Cc2ccccc2)CC1` are within 1.5-fold of each other in XC50: 720 nM for the first, 939 nM for the second.

`CCC(=O)Oc1ccc(NC(=O)c2cccc(OC)c2)cc1` and `CCC(=O)c1cc(C(=O)NCCc2cccc(OC)c2)ccc1OC` are within 1.5-fold of each other in XC50: 771 nM for the first, 902 nM for the second.

Going from `COc1ccc2nccc([C@@H](O)CN3CCC(NCCOc4ccc(F)cc4Cl)CC3)c2c1` to `COc1ccc2nccc([C@@H](O)CN3CCC(NCc4nc5ccccc5s4)CC3)c2c1`, the XC50 rises from 276 nM to 927 nM (3.4-fold).

Going from `CC(C)Cc1ccc(N2CCN(CCCCNC(=O)c3ccc(NC(=O)c4ccc(Cl)c(Cl)c4)cc3)CC2)cc1` to `N#Cc1ccc(/C=C/C(=O)NCCCCCN2CCCN(C(=O)Nc3ccc(Cl)c(C(F)(F)F)c3)CC2)cc1`, the XC50 falls from 1200 nM to 437 nM (2.7-fold).

Going from `COc1ccc(C(=C(C)CC(C)C(=O)O)c2ccccc2)cc1` (stereo not drawn) to `COc1ccc(COc2cc(NCCCN)nc3ccccc23)cc1`, the XC50 rises from 845 nM to 1280 nM (1.5-fold).

Compared with `COc1ccc(NC(=O)Nc2nc(-c3ccc(Cl)c(C)c3)cs2)cc1N1CCN(C)CC1`, `CC(=O)Nc1ccc2[nH]cc(C3CCN(CCC4CCN(C(=O)/C=C/c5ccc(Cl)c(Cl)c5)CC4)CC3)c2c1` is 2.9-fold higher in XC50: 266 nM for the first, 776 nM for the second.

`CN(C)CCCNc1nccc(N(C)c2ccc(NC(=O)Nc3cc(C(F)(F)F)ccc3F)cc2)n1` and `Nc1ccc(Nc2ccnc3ccc(C(F)(F)F)cc23)cc1O` are within 1.5-fold of each other in XC50: 980 nM for the first, 716 nM for the second.

Compared with `Cc1nc(N)nc(N)c1OCc1cccc2c1ccc1ccccc12`, `Cc1cccc(Nc2nc(N)c3ccccc3n2)c1` is 5.8-fold higher in XC50: 98.8 nM for the first, 574 nM for the second.

`Cc1cc(NC(=O)c2coc3cc(F)c(N4CC(C)N(C)C(C)C4)cc23)cnc1-c1ccc(C#N)cc1` (stereo not drawn) and `O=C(NC1CCN(c2ccnc3cc(Cl)ccc23)C1)c1ccccc1F` (stereo not drawn) are within 1.5-fold of each other in XC50: 695 nM for the first, 971 nM for the second.

`O=C(c1cc2cccc([N+](=O)[O-])c2[nH]1)N1CCC(CCN2CCC(c3c[nH]c4ccccc34)CC2)CC1` and `FC(F)(F)c1cccc(N2CCC(CN3CCC(c4c[nH]c5ccccc45)CC3)CC2)n1` are within 1.5-fold of each other in XC50: 943 nM for the first, 980 nM for the second.

`COc1ccc(C2CC(=O)C3=C(C2)NC(C)=C(C(=O)OC2CCCC2)C3c2ccc(O)cc2)cc1OC` (stereo not drawn) and `Cc1cc2nc(N/C(N)=N/C(=O)NC3CCCCC3)nc(C)c2cc1C` are within 1.5-fold of each other in XC50: 565 nM for the first, 754 nM for the second.

`CS(=O)(=O)NCCCNCc1ccc(-c2ccc(-c3nc4cc(C(F)(F)F)ccc4[nH]3)cc2)cc1` and `CS(=O)(=O)c1ccc(CNCc2ccc(-c3cccc(-c4nc5ccccc5[nH]4)c3)cc2)cc1` are within 1.5-fold of each other in XC50: 457 nM for the first, 326 nM for the second.

Going from `CCN(CC)CCNc1ccnc2ccc3ccccc3c12` to `CCCN1CCC=C(c2cccc(Nc3nccc(Nc4cc(OC)ccc4C)n3)c2)C1`, the XC50 rises from 219 nM to 1040 nM (4.7-fold).

`Nc1ncc(Cc2cc(Cl)c(N)c3ncccc23)c(N)n1` and `Oc1c(C(Nc2ccccn2)c2ccc(Cl)cc2Cl)ccc2cccnc12` (stereo not drawn) are within 1.5-fold of each other in XC50: 1120 nM for the first, 892 nM for the second.

Compared with `CCCN(CCC)CCOc1ccc(C(O)(C#CC(O)(c2ccc(OCCN(CCC)CCC)cc2)c2cccc(Cl)c2)c2cccc(Cl)c2)cc1` (stereo not drawn), `Cc1cccc2nc(-c3cccc(-c4cccc(NC(=O)CNc5ccc(C(N)=O)cc5)c4)c3)[nH]c12` is 2.8-fold lower in XC50: 790 nM for the first, 282 nM for the second.

`O=C(O)C[C@H](NC(=O)[C@@H]1CCCN1C(=O)c1cccc(-c2ccc(Cl)c(Cl)c2)c1)C(=O)O` and `O=C(NCCN1CCN(S(=O)(=O)c2ccc(OC3CCNCC3)c(Br)c2)CC1)c1ccc(Cl)c(Cl)c1` are within 1.5-fold of each other in XC50: 863 nM for the first, 891 nM for the second.

Compared with `CC(C)NCc1cccc(-c2ccc(NC(=O)c3ccc(F)cc3)cc2)c1`, `O=C(Nc1cccc(-c2cccc(-c3nc4cc(F)ccc4[nH]3)c2)c1)Nc1ccc(F)c(F)c1F` is 9.5-fold lower in XC50: 850 nM for the first, 89.1 nM for the second.

`O=C(NCCc1ccccc1)N(Cc1ccccc1-c1ccc(CNC2CCCC2)cc1)C1CCN(Cc2ccccc2)CC1` and `CCCCCc1cc(O)c2c(c1)OC(C)(C)CC2C1=CCN(Cc2cccnc2)CC1` (stereo not drawn) are within 1.5-fold of each other in XC50: 1130 nM for the first, 991 nM for the second.

First: COc1ccc2nc(C)cc(Nc3ccc(Oc4ccc(Br)c5ccccc45)c(Cl)c3)c2c1
Second: CN1CCN(CC2(Nc3nccc(NCc4ccc(Cl)cc4Cl)n3)CCCCC2)CC1
The XC50 of the first is 2.1-fold lower: 277 nM for the first, 593 nM for the second.
